Laboratory results: US9204653B2, “5-fluoro pyrimidine derivatives” (DOW AGROSCIENCES LLC, priority 2008, dated 2015)
Where two headings read alike, the source gives them in different places.

Test system: Mycosphaerella graminicola; Anamorph: Septoria tritici; Bayer Code SEPTTR
Assay: Leaf blotch of wheat, foliar fungicide treatment, one day protectant (1DP) or three day curative (3DC)
Format: in vivo, Septoria tritici on wheat plants (variety Yuma)
Settings: Zymoseptoria tritici, rating of percent disease control
[1] = 24 h, one day protectant, read-out: SETTTR 1DP 25 ppm
[2] = 24 h, one day protectant, read-out: SEPTTR 1DP 100 ppm
[3] = 72 h, three day curative, read-out: SEPTTR 3DC 25 ppm
[4] = 72 h, three day curative, read-out: SEPTTR 3DC 100 ppm

SMILES: COc1cc(COc2ncc(F)c(N)n2)ccc1F [Compound 581]
- pest or weed control at 25 ppm [1]: 76 to 100%
- pest or weed control at 100 ppm [2]: 76 to 100%
- pest or weed control at 25 ppm [3]: 76 to 100%
- pest or weed control at 100 ppm [4]: 76 to 100%

SMILES: Nc1nc(OCCNc2ccccc2)ncc1F [Compound 583]
- pest or weed control at 25 ppm [1]: 0 to 25%
- pest or weed control at 100 ppm [2]: 76 to 100%
- pest or weed control at 25 ppm [3]: 76 to 100%
- pest or weed control at 100 ppm [4]: 76 to 100%

SMILES: CN(C)/C=N/c1nc(OC(=O)c2ccc(Cl)cc2)ncc1F [Compound 585]
- pest or weed control at 25 ppm [1]: 76 to 100%
- pest or weed control at 100 ppm [2]: 76 to 100%
- pest or weed control at 25 ppm [3]: 76 to 100%
- pest or weed control at 100 ppm [4]: 76 to 100%

SMILES: COc1cccc(COc2ncc(F)c(N3CCOCC3)n2)c1 [Compound 586]
- pest or weed control at 25 ppm [1]: 0 to 25%
- pest or weed control at 100 ppm [2]: 0 to 25%
- pest or weed control at 25 ppm [3]: 0 to 25%
- pest or weed control at 100 ppm [4]: 0 to 25%

SMILES: O=C(Nc1ccsc1)Nc1nc(OCc2ccc(F)cc2)ncc1F [Compound 587]
- pest or weed control at 25 ppm [1]: 0 to 25%
- pest or weed control at 100 ppm [2]: 0 to 25%
- pest or weed control at 25 ppm [3]: 26 to 50%
- pest or weed control at 100 ppm [4]: 76 to 100%

SMILES: CNc1nc(OCc2ccc(OC)c(OC)c2)ncc1F [Compound 589]
- pest or weed control at 25 ppm [1]: 0 to 25%
- pest or weed control at 100 ppm [2]: 0 to 25%
- pest or weed control at 25 ppm [3]: 0 to 25%
- pest or weed control at 100 ppm [4]: 0 to 25%

SMILES: COc1ccc(COc2ncc(F)c(N)n2)cc1F [Compound 590]
- pest or weed control at 25 ppm [1]: 76 to 100%
- pest or weed control at 100 ppm [2]: 76 to 100%
- pest or weed control at 25 ppm [3]: 76 to 100%
- pest or weed control at 100 ppm [4]: 76 to 100%

SMILES: Cc1cc(C)cc(C(C)Oc2ncc(F)c(N)n2)c1 (stereo not shown) [Compound 592]
- pest or weed control at 25 ppm [1]: 76 to 100%
- pest or weed control at 100 ppm [2]: 76 to 100%
- pest or weed control at 25 ppm [3]: 76 to 100%
- pest or weed control at 100 ppm [4]: 76 to 100%

SMILES: COc1cccc(COc2ncc(F)c(NOCc3ccccc3)n2)c1 [Compound 594]
- pest or weed control at 25 ppm [1]: 0 to 25%
- pest or weed control at 100 ppm [2]: 51 to 75%
- pest or weed control at 25 ppm [3]: 0 to 25%
- pest or weed control at 100 ppm [4]: 26 to 50%

SMILES: Cn1ccc(COc2ncc(F)c(NC(=S)NCc3ccccc3F)n2)n1 [Compound 595]
- pest or weed control at 25 ppm [1]: 26 to 50%
- pest or weed control at 100 ppm [2]: 76 to 100%
- pest or weed control at 25 ppm [3]: 0 to 25%
- pest or weed control at 100 ppm [4]: 0 to 25%

SMILES: Nc1nc(OCc2ccc(OC(F)(F)F)cc2)ncc1F [Compound 596]
- pest or weed control at 25 ppm [1]: 76 to 100%
- pest or weed control at 100 ppm [2]: 76 to 100%
- pest or weed control at 25 ppm [3]: 76 to 100%
- pest or weed control at 100 ppm [4]: 76 to 100%

SMILES: Cc1cc(C(C)Oc2ncc(F)c(N)n2)ccc1Cl (stereo not shown) [Compound 597]
- pest or weed control at 25 ppm [1]: 76 to 100%
- pest or weed control at 100 ppm [2]: 76 to 100%
- pest or weed control at 25 ppm [3]: 76 to 100%
- pest or weed control at 100 ppm [4]: 76 to 100%

SMILES: CC[Si](CC)(CC)Nc1nc(OCc2cccc(C#N)c2)ncc1F [Compound 599]
- pest or weed control at 25 ppm [1]: 51 to 75%
- pest or weed control at 100 ppm [2]: 76 to 100%
- pest or weed control at 25 ppm [3]: 76 to 100%
- pest or weed control at 100 ppm [4]: 76 to 100%

SMILES: CCOCNc1nc(OCc2cccc(OC)c2)ncc1F [Compound 601]
- pest or weed control at 25 ppm [1]: 76 to 100%
- pest or weed control at 100 ppm [2]: 76 to 100%
- pest or weed control at 25 ppm [3]: 76 to 100%
- pest or weed control at 100 ppm [4]: 76 to 100%

SMILES: Cc1cccc(COc2ncc(F)c(N)n2)c1C [Compound 602]
- pest or weed control at 25 ppm [1]: 0 to 25%
- pest or weed control at 100 ppm [2]: 51 to 75%
- pest or weed control at 25 ppm [3]: 0 to 25%
- pest or weed control at 100 ppm [4]: 0 to 25%

SMILES: COc1cccc(COc2ncc(F)c(N/N=C/c3nc(C)cs3)n2)c1 [Compound 603]
- pest or weed control at 25 ppm [1]: 26 to 50%
- pest or weed control at 100 ppm [2]: 76 to 100%
- pest or weed control at 25 ppm [3]: 0 to 25%
- pest or weed control at 100 ppm [4]: 0 to 25%

SMILES: Nc1nc(OCc2ccccc2Br)ncc1F [Compound 604]
- pest or weed control at 25 ppm [1]: 76 to 100%
- pest or weed control at 100 ppm [2]: 76 to 100%
- pest or weed control at 25 ppm [3]: 76 to 100%
- pest or weed control at 100 ppm [4]: 76 to 100%

SMILES: CC[Si](CC)(CC)Nc1nc(Oc2ccc(OC)cc2)ncc1F [Compound 605]
- pest or weed control at 25 ppm [1]: 51 to 75%
- pest or weed control at 100 ppm [2]: 76 to 100%
- pest or weed control at 25 ppm [3]: 0 to 25%
- pest or weed control at 100 ppm [4]: 76 to 100%

SMILES: CC(Oc1ncc(F)c(N)n1)c1ccc(Cl)c(Cl)c1Cl (stereo not shown) [Compound 607]
- pest or weed control at 25 ppm [1]: 0 to 25%
- pest or weed control at 100 ppm [2]: 0 to 25%
- pest or weed control at 25 ppm [3]: 0 to 25%
- pest or weed control at 100 ppm [4]: 26 to 50%

SMILES: COc1cccc(COc2ncc(F)c(N(C)N)n2)c1 [Compound 608]
- pest or weed control at 25 ppm [1]: 51 to 75%
- pest or weed control at 100 ppm [2]: 76 to 100%
- pest or weed control at 25 ppm [3]: 51 to 75%
- pest or weed control at 100 ppm [4]: 76 to 100%

SMILES: COc1cccc(COc2ncc(F)c(N)n2)c1OC [Compound 609]
- pest or weed control at 25 ppm [1]: 76 to 100%
- pest or weed control at 100 ppm [2]: 76 to 100%
- pest or weed control at 25 ppm [3]: 76 to 100%
- pest or weed control at 100 ppm [4]: 76 to 100%

SMILES: Cc1ccc(OC(=O)Oc2ncc(F)c(/N=C/N(C)C)n2)cc1 [Compound 610]
- pest or weed control at 25 ppm [1]: 76 to 100%
- pest or weed control at 100 ppm [2]: 76 to 100%
- pest or weed control at 25 ppm [3]: 26 to 50%
- pest or weed control at 100 ppm [4]: 51 to 75%
